# In patent US20250268975A1 (priority 2024, published 2025):
# *1 amine or outer side, *2 acyl side, *3 side chain or, on linkers, in order; H or OH if unused. Where a SMILES comes first, the peptide text is derived from it. [ ]: non-standard residue; d: D form. X1 = CCCCCCCCCCCCCCN(CC(=O)[*:2])[*:1]; Nrpe = C[C@@H](NCC(=O)O)c1ccccc1; Nlys = NCCCCNCC(=O)O
# Test system: transgenic Zaire Ebola virus (EBOV) of the Mayinga strain, expressing green fluorescent protein (EBOV-GFP)
# Type: cell-based
smiles,measurement,value
"CCCCCCCCCCCCCCNCC(=O)N(CCCCN)CC(=O)N(CC(=O)N(CC(=O)N(CCCCN)CC(N)=O)[C@H](C)c1ccccc1)[C@H](C)c1ccccc1 [MXB-24,816, H-Ntetradec-Nlys-Nspe-Nspe-Nlys-NH2] (H-[X1][Nlys][Nrpe][Nrpe][Nlys]-NH2)",antiviral activity against Ebola virus (inhibition of viral titers and GFP-positive Ebola virus replication),showed antiviral activity
